Reference: ChEMBL document CHEMBL1933060, “Discovery of novel 5-alkynyl-4-anilinopyrimidines as potent, orally active dual inhibitors of EGFR and Her-2 tyrosine kinases” (Bioorg Med Chem Lett, 2012)
Active and inactive are the calls of the source. The rule behind the calls is not given here.

Experiments:
[1] = molecular target: Epidermal growth factor receptor (Homo sapiens, UniProt P00533); experiment: Inhibition of EGFR by time-resolved fluorescence assay
[2] = molecular target: Receptor tyrosine-protein kinase erbB-2 (Homo sapiens, UniProt P04626); experiment: Inhibition of Her-2 by time-resolved fluorescence assay
BT-474 = experiment: Antiproliferative activity against human BT474 cells after 3 days by methylene blue staining; type: functional, cell-based; conditions: BT-474, 72 h
NCI-N87 [3] = experiment: Antiproliferative activity against human NCI-N87 cells after 3 days by methylene blue staining; type: functional, cell-based; conditions: NCI-N87, 72 h
NCI-N87 [4] = experiment: Antitumor activity against human NCI-N87 cells xenografted in athymic mouse assessed as tumor volume at 20 mg/kg, po QD for 14 days measured after 19 days relative to control; type: functional
NCI-N87 [5] = experiment: Antitumor activity against human NCI-N87 cells xenografted in athymic mouse assessed as tumor volume at 80 mg/kg, po QD for 14 days measured after 19 days relative to control; type: functional
[6] = molecular target: Vascular endothelial growth factor receptor 2 (Homo sapiens, UniProt P35968); experiment: Inhibition of VEGFR2
[7] = molecular target: Platelet-derived growth factor receptor beta (Homo sapiens, UniProt P09619); experiment: Inhibition of PDGFRbeta
Aurora kinase A = molecular target: T1, Aurora kinase A (Homo sapiens, UniProt O14965); experiment: Inhibition of Aurora A
T1 sequence (O14965 whole entry): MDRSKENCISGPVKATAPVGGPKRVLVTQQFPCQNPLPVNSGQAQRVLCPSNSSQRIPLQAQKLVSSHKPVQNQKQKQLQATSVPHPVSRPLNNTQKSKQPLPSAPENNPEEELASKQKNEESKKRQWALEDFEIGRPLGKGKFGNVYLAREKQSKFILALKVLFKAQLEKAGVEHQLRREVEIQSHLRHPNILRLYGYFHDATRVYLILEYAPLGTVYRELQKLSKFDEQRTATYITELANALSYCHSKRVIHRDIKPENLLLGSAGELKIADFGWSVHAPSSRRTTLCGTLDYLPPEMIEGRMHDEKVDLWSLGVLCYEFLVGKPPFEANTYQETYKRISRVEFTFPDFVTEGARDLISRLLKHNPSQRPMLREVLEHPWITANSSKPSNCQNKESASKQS

Insulin receptor = Insulin receptor (Homo sapiens, UniProt P06213); experiment: Inhibition of INSR
[8] = molecular target: Tyrosine-protein kinase Lck (Homo sapiens, UniProt P06239); experiment: Inhibition of Lck
[9] = Aqueous solubility of the compound at pH 7.4; type: physicochemical
[10] = Metabolic stability of the compound in human liver microsomes assessed as compound remaining after 30 mins; type: ADME, Microsome; conditions: read-out: Stability
[11] = Metabolic stability of the compound in rat liver microsomes assessed as compound remaining after 30 mins; type: ADME, Microsome; conditions: read-out: Stability
[12] = AUC in po dosed rat; type: ADME, organism-based; conditions: plasma
[13] = Total clearance in iv dosed rat; type: ADME, organism-based; conditions: in vivo
[14] = Oral bioavailability in rat; type: ADME, organism-based; conditions: in vivo
NCI-N87 [15] = experiment: Antitumor activity against human NCI-N87 cells xenografted in athymic mouse assessed as tumor growth inhibition at 20 mg/kg, po QD for 14 days measured after 19 days; type: functional, organism-based; parameters: dose 20 mg/kg
NCI-N87 [16] = experiment: Antitumor activity against human NCI-N87 cells xenografted in athymic mouse assessed as tumor growth inhibition at 80 mg/kg, po QD for 14 days measured after 19 days; type: functional, organism-based; parameters: dose 80 mg/kg

Chain of Receptor tyrosine-protein kinase erbB-2 (P04626 whole entry): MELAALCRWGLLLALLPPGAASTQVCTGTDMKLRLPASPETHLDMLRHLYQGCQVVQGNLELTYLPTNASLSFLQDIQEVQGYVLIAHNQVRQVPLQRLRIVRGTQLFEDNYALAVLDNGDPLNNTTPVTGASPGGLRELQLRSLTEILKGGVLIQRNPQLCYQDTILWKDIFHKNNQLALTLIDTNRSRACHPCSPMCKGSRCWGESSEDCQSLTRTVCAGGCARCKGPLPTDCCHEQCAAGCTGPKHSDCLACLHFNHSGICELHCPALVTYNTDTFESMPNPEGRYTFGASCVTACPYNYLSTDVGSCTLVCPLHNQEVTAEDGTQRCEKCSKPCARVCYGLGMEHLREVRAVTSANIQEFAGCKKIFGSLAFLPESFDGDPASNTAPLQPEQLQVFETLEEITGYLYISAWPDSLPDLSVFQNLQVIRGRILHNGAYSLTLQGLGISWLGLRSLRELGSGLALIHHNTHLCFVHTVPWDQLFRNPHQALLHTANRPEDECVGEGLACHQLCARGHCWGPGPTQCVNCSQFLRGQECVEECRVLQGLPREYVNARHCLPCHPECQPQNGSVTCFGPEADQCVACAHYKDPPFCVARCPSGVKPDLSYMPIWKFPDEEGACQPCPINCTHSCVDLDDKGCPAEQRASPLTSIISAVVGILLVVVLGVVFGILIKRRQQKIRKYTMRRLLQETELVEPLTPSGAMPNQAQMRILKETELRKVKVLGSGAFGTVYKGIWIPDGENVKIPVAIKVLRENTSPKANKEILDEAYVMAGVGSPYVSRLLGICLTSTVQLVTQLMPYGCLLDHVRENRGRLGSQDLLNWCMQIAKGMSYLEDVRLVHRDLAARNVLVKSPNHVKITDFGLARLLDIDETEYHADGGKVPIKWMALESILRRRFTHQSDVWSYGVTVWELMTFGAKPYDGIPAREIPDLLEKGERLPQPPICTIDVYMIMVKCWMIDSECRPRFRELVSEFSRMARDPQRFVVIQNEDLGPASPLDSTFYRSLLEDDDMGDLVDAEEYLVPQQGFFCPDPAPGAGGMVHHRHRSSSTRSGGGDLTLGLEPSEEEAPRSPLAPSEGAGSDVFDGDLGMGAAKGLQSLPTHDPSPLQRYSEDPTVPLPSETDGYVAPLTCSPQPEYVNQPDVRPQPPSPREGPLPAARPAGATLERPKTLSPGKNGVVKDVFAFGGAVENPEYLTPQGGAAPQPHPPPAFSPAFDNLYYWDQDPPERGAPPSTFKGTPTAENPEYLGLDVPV
Chain of Epidermal growth factor receptor (P00533 whole entry): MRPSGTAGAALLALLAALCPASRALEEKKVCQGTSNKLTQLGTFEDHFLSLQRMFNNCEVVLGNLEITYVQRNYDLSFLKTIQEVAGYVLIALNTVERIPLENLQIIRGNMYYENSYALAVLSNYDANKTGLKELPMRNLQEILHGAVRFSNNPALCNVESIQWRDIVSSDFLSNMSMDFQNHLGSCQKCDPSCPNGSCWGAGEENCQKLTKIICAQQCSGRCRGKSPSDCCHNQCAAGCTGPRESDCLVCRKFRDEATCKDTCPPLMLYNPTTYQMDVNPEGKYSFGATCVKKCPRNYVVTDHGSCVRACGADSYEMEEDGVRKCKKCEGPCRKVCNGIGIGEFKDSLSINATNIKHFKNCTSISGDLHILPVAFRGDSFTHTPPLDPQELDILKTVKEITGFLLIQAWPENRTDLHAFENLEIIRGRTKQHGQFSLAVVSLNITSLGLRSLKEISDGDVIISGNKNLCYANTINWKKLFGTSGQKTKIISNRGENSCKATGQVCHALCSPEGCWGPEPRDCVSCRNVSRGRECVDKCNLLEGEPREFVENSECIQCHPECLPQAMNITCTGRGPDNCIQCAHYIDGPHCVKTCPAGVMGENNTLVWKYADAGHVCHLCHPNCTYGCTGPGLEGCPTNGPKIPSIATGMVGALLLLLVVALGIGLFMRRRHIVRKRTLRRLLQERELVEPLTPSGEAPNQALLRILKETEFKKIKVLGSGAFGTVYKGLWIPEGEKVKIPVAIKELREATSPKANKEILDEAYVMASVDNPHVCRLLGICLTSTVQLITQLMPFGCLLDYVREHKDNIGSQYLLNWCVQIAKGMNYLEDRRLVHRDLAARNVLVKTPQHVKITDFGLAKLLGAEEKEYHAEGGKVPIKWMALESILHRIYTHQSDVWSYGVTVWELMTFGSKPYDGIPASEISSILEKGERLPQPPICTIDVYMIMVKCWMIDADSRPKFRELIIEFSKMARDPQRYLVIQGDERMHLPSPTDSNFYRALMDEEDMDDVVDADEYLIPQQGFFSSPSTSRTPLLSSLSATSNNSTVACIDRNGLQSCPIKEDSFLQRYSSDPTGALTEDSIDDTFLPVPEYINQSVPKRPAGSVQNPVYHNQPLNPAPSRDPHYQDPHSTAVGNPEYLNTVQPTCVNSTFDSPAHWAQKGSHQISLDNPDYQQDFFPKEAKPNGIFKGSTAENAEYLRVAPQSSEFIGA
Chain of Tyrosine-protein kinase Lck (P06239 whole entry): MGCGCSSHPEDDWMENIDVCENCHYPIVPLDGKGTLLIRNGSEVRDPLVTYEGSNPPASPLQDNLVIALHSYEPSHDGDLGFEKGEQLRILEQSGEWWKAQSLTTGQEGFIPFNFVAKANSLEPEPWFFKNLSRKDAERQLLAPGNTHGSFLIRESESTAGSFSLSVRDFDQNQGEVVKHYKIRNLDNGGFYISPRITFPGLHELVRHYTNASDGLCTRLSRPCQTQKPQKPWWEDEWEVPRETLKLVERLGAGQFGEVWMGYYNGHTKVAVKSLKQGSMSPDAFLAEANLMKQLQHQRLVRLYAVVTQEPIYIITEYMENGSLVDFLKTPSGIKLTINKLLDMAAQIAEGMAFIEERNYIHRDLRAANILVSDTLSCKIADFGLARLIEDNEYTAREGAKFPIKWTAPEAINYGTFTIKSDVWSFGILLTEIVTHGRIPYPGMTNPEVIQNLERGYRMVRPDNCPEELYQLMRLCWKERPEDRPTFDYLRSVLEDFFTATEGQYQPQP
Chain of Insulin receptor (P06213 28-758 limits assumed): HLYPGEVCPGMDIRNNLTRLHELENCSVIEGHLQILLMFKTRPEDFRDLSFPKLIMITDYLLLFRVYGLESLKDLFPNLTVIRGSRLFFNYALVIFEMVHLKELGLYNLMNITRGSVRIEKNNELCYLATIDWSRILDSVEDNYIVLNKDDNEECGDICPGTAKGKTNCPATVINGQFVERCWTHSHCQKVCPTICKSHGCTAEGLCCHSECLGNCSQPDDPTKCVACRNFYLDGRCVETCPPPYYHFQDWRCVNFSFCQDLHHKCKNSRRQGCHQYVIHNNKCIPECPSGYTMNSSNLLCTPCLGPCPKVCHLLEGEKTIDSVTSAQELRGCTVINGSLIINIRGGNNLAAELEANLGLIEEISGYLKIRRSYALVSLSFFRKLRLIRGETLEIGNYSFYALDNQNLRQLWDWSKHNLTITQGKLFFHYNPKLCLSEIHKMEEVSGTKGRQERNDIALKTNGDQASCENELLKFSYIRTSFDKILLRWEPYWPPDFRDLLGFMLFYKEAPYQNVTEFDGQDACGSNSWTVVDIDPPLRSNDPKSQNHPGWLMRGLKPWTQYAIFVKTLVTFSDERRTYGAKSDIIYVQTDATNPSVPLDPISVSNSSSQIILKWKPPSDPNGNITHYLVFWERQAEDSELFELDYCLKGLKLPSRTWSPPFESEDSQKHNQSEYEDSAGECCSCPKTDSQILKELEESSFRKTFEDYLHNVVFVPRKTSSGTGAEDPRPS
Chain of Insulin receptor (P06213 763-1382 limits assumed): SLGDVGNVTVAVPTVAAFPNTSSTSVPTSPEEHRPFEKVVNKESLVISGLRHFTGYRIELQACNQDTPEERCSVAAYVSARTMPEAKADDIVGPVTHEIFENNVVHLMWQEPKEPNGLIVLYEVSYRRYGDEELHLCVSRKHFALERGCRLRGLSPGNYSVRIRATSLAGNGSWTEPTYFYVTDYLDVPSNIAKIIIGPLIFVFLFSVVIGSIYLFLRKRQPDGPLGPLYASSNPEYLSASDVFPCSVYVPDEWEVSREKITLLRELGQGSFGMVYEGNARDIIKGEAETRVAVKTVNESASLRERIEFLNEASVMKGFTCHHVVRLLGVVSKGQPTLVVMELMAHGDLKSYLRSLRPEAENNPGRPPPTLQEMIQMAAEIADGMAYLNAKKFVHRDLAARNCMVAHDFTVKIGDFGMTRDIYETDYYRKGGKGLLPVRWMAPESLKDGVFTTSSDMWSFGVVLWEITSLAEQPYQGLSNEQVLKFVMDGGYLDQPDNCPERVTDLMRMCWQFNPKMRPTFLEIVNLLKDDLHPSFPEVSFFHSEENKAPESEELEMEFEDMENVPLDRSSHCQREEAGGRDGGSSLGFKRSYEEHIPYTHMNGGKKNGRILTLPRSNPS

| Compound | IC50 [1] | IC50 [2] | IC50 (BT-474) | IC50 (NCI-N87 [3]) | also measured |
| --- | --- | --- | --- | --- | --- |
| Cc1ncnc(Nc2ccc(OCc3cccc(F)c3)c(Cl)c2)c1C#Cc1ccc(CN2CCCC2)s1 | 30 nM | 180 nM | 410 nM | 690 nM | – |
| Cc1ncnc(Nc2ccc(OCc3cccc(F)c3)c(Cl)c2)c1C#Cc1ccccc1 | 650 nM | 750 nM | – | – | – |
| Cc1ncnc(Nc2ccc(OCc3cccc(F)c3)c(Cl)c2)c1C#Cc1ccc(CN2CCCC2)cc1 | 9 nM | 41 nM | – | – | – |
| CS(=O)(=O)CCNCc1ccc(-c2ccc3ncnc(Nc4ccc(OCc5cccc(F)c5)c(Cl)c4)c3c2)o1 [LAPATINIB] | – | – | 100 nM | 90 nM | – |
| CS(=O)(=O)CCNCc1ccc(-c2ccc3ncnc(Nc4ccc(OCc5cccc(F)c5)c(Cl)c4)c3c2)o1.Cc1ccc(S(=O)(=O)O)cc1.Cc1ccc(S(=O)(=O)O)cc1.O [LAPATINIB DITOSYLATE] | – | – | – | – | T/C (NCI-N87 [4]): 0.57; T/C (NCI-N87 [5]): 0.37 |
| Cc1ncnc(Nc2ccc(OCc3cccc(F)c3)c(Cl)c2)c1C#Cc1ccc(CN2CCCC2)c(F)c1 | 190 nM | 62 nM | 50 nM | 60 nM | IC50 [6]: > 100000 nM; IC50 [7]: > 100000 nM; IC50 (Aurora kinase A): > 100000 nM; IC50 (Insulin receptor): > 100000 nM; IC50 [8]: > 100000 nM; solubility [9]: > 50 µM; remaining at 0.5 h [10]: 24%; remaining at 0.5 h [11]: 63%; AUC [12]: 361 ng·h/mL; clearance [13]: 18 mL/min/kg; bioavailability [14]: 35%; growth inhibition (GI) (NCI-N87 [15]): Active; growth inhibition (GI) (NCI-N87 [16]): Active; T/C (NCI-N87 [4]): 0.56; T/C (NCI-N87 [5]): 0.54 |
| Cc1ncnc(Nc2ccc(OCc3cccc(F)c3)c(Cl)c2)c1/C=C/c1ccc(CNCCS(C)(=O)=O)cc1 | – | 120 nM | 640 nM | 780 nM | – |
| CS(=O)(=O)CCNCc1ccc(-c2ccc3ncnc(Nc4ccc(OCc5cccc(F)c5)c(Cl)c4)c3c2)o1 | – | – | – | – | growth inhibition (GI) (NCI-N87 [15]): Active |
| Cc1ncnc(Nc2ccc(OCc3cccc(F)c3)c(Cl)c2)c1C#Cc1ccc(CN(C)C)cc1 | 7 nM | 41 nM | – | – | – |
| Cc1ncnc(Nc2ccc(OCc3cccc(F)c3)c(Cl)c2)c1C#CCOc1ccc(CNC(C)C)cc1 | 86 nM | 130 nM | – | – | – |
| Cc1ncnc(Nc2ccc(OCc3cccc(F)c3)c(Cl)c2)c1C#Cc1ccc(CNCCS(C)(=O)=O)cc1 | 22 nM | 220 nM | – | – | – |
| Cc1ncnc(Nc2ccc(OCc3cccc(F)c3)c(Cl)c2)c1C#Cc1ncc(CN2CCCC2)s1 | 74 nM | 110 nM | – | – | – |
| Cc1ncnc(Nc2ccc(OCc3cccc(F)c3)c(Cl)c2)c1C#Cc1ccc(CN2CCCC2)o1 | 79 nM | 140 nM | 810 nM | 1360 nM | – |
| Cc1ncnc(Nc2ccc(OCc3cccc(F)c3)c(Cl)c2)c1C#Cc1ccc(CNC(C)C)cc1 | 3 nM | 18 nM | 170 nM | 240 nM | – |
| Cc1ncnc(Nc2ccc(OCc3cccc(F)c3)c(Cl)c2)c1/C=C/c1ccc(CNC(C)C)cc1 | 24 nM | 30 nM | – | – | – |
| Cc1ncnc(Nc2ccc(OCc3cccc(F)c3)c(Cl)c2)c1C#Cc1cccc(CN(C)C)c1 | 55 nM | 73 nM | – | – | – |
| Cc1ncnc(Nc2ccc(OCc3cccc(F)c3)c(Cl)c2)c1/C=C/c1ccc(CNC2CC2)cc1 | 98 nM | 86 nM | – | – | – |
